Data: patent publication US20240366717A1 (priority 2020, published 2024)
Square brackets hold non-standard residues; d marks the D form. Ends that are not written are not given here.

Columns and labels:
[1] = Net peptide charge and isoelectric point as a function of pH; type: physicochemical; details: pH 7
From the text: The peptide may be purified. For example, the peptide may be lyophilized. […] Other peptides are within the scope of the disclosure.
Exemplary peptides having a charge of +5 to +9 include […](d)[…], […](d)[…], and […](d)[…]. In other embodiments, the purified peptide may be substantially neutral. […] Net charge may be selected by peptide design. Design of electrostatic charge in the peptide hydrogel may allow control of charge interaction with cell membrane and proteins.

E. coli = test: Antibacterial assay of PEPXR hydrogels, E. coli; type: cell-based; details: evaluated against E. coli, S. aureus and P. aeruginosa
From the text: Thus, the peptide hydrogels described herein may generally comprise a high content of positively charged arginine (R) amino acids.

With VEVSVSVEV(d)PPTEVSVEVEV the net charge [1] was “net negative charge”.

For “VKVRVRVRVPPTRVRVRVKV (VKVRVRVRV[dP]PTRVRVRVKV-NH2) [PEP6R]”, the antimicrobial activity (E. coli) was “potent antimicrobial activity”.
